# Results as given in ChEMBL document CHEMBL1201862, “PubChem BioAssay data set” (2004).
#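 96-well plates; 48 h exposure; 5 concentrations. Endpoints by linear interpolation between flanking doses. Not reached: highest tested concentration assigned. The concentration for 50% growth inhibition is given as GI50.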 Calls of active or inactive are those of the source. No stated cut-off is given here; in the data, active = GI50 up to about 1.1 µM and inactive = higher.
# How the values were obtained:
# Experiment in all cases: NCI-60 cell line screen, 48 h
# SK-MEL-28 = test system: SK-MEL-28
# SF-539 = test system: SF-539
# MOLT-4 = test system: MOLT-4
# UACC-257 = test system: UACC-257
# SK-MEL-2 = test system: SK-MEL-2
# SK-OV-3 = test system: SK-OV-3
# EKVX = test system: EKVX
# 786-0 = test system: 786-0
# RPMI-8226 = test system: RPMI-8226
# HCC 2998 = test system: HCC 2998
# UACC-62 = test system: UACC-62
# SK-MEL-5 = test system: SK-MEL-5
# MDA-MB-435 = test system: MDA-MB-435
# NCI/ADR-RES = test system: NCI/ADR-RES
# SF-295 = test system: SF-295
# A549 = test system: A549
# HCT-15 = test system: HCT-15
# NCI-H226 = test system: NCI-H226
# Malme-3M = test system: Malme-3M
# SR = test system: SR
SMILES,GI50 (SK-MEL-28),GI50 (SF-539),GI50 (MOLT-4),GI50 (UACC-257),GI50 (SK-MEL-2),GI50 (SK-OV-3),GI50 (EKVX),GI50 (786-0),GI50 (RPMI-8226),GI50 (HCC 2998),GI50 (UACC-62),GI50 (SK-MEL-5),GI50 (MDA-MB-435),GI50 (NCI/ADR-RES),GI50 (SF-295),GI50 (A549),GI50 (HCT-15) [µM],GI50 (NCI-H226),GI50 (Malme-3M),GI50 (SR)
CC(C)(C)OC(=O)NC(Cc1ccc(OC(C)(C)C)cc1)C(=O)N[C@H]1CCC[C@H]1C(=O)NC(Cc1ccccc1)C(=O)N1CCCC1C(N)=O (stereo not given in full),> 100 µM (inactive),> 100 µM (inactive),> 100 µM (inactive),> 100 µM (inactive),> 100 µM (inactive),> 100 µM (inactive),> 100 µM (inactive),> 100 µM (inactive),80.5 µM (inactive),> 100 µM (inactive),> 100 µM (inactive),> 100 µM (inactive),> 100 µM (inactive),> 100 µM (inactive),> 100 µM (inactive),> 100 µM (inactive),> 100,> 100 µM (inactive),> 100 µM (inactive),> 100 µM (inactive)
c1ccc2c[n+](Cc3ccnc4ccccc34)ccc2c1,> 100 µM (inactive),> 100 µM (inactive),> 100 µM (inactive),> 100 µM (inactive),> 100 µM (inactive),> 100 µM (inactive),71 µM (inactive),> 100 µM (inactive),> 100 µM (inactive),> 100 µM (inactive),> 100 µM (inactive),42.8 µM (inactive),> 100 µM (inactive),> 100 µM (inactive),> 100 µM (inactive),> 100 µM (inactive),> 100,41.8 µM (inactive),> 100 µM (inactive),> 100 µM (inactive)
Cc1ccc(O)c(C(c2ccc(C(c3cc(C)ccc3O)c3cc(C)ccc3O)cc2)c2cc(C)ccc2O)c1,1.81 µM (inactive),1.75 µM (inactive),2.9 µM (inactive),1.85 µM (inactive),1.86 µM (inactive),1.68 µM (inactive),1.87 µM (inactive),1.67 µM (inactive),1.56 µM (inactive),1.8 µM (inactive),1.71 µM (inactive),1.77 µM (inactive),1.7 µM (inactive),1.88 µM (inactive),2.06 µM (inactive),1.67 µM (inactive),1.8,1.86 µM (inactive),1.88 µM (inactive),2.62 µM (inactive)
CC(=O)O[C@@H]1C2=C(C)C=C(O2)[C@H]2O[C@]2(C)C[C@H]2C=C(C(=O)O2)[C@H](OC(C)=O)CC1[C@@]1(C)CO1 (stereo not given in full),19.4 µM (inactive),29.5 µM (inactive),9.64 µM (inactive),28.1 µM (inactive),56.1 µM (inactive),> 100 µM (inactive),26.2 µM (inactive),23.9 µM (inactive),13.9 µM (inactive),> 100 µM (inactive),21.7 µM (inactive),35.7 µM (inactive),23.5 µM (inactive),29.4 µM (inactive),36.1 µM (inactive),45.3 µM (inactive),22,> 100 µM (inactive),17.5 µM (inactive),18.7 µM (inactive)
Cc1ccccc1/N=N/c1ccc(/N=N/c2c(O)ccc3cc(S(=O)(=O)O)cc(S(=O)(=O)O)c23)c(C)c1,> 100 µM (inactive),> 100 µM (inactive),> 100 µM (inactive),> 100 µM (inactive),> 100 µM (inactive),> 100 µM (inactive),> 100 µM (inactive),> 100 µM (inactive),> 100 µM (inactive),> 100 µM (inactive),> 100 µM (inactive),> 100 µM (inactive),> 100 µM (inactive),> 100 µM (inactive),> 100 µM (inactive),> 100 µM (inactive),> 100,> 100 µM (inactive),> 100 µM (inactive),> 100 µM (inactive)
